The record followed here is patent US20120122966A1, “USE OF ORGANIC DYES AS ANALGESIC AGENTS” (priority 2009, published 2012).

Format in all cases: in vivo, human
Assay [1] has as its system renal cell carcinoma, lung and bone metastases, excruciating bone pain. Description: Example 2: patient T., renal cell carcinoma with lung and bone metastases, bone pain, treated with crystal violet. The method, then: Patient four. Three years ago, the left kidney was removed, and preventive chemotherapy was administered for renal cell carcinoma. In a CT examination, a 2.5×2.4×2.3 cm tumor-like mass in the right kidney projection, three round tumor-like masses from 2.6 to 2.3 cm in diameter in the left lung, and numerous bone metastases. Grave condition, dyspnea, cyanosis, […]. Complaints of excruciating bone pain. […] Treatment prescribed, including the use of an antitumor medicinal preparation. The preparation, crystal violet, was administered by mouth as a potion-16 drops of a 1% solution three times a day, and as microclysters. After 7 days of treatment, dyspnea abated, and the pain syndrome disappeared. Blood tests against the background of treatment have normalized over 3 weeks. Then, the course was repeated using crystal violet preparation which was administered into rectum in the form of 1% suppositories and by inhaling, for 12 months with half-month long breaks. During the therapy the right kidney tumor and lung metastases disappeared. No pain. Weight restored.

Assay [2] concerns pancreas head blastoma, pain. The assay can be described thus: Example 5: patient Z., pancreas head blastoma with neck lymph node metastases, pain, treated with gentian violet. The text has this:
Patient two. […] Started chemotherapy. After three weeks the condition began rapidly deteriorating, accompanied by extreme weight loss—from 95 kg to 72 kg. Pain became considerably more severe. Stomach pain occurs before having a meal, i.e. after having a meal the pain is lower. At the same time stool was lightly yellow—very light color. The patient had been taking an analgesic—ketanol—infrequently, but lately has been taking it two times a day. […] Immediately after the end of the first course of phthorafurum the patient began taking gentian violet preparation, 3 mg per 50 kg of weight two times a day.

The subject of assay [3] is poorly differentiated pulmonary adenocarcinoma, MTS to the brain and skeleton bones, pain syndrome. Description: Example 1: patient V., pulmonary adenocarcinoma with MTS, pain syndrome, treated with gentian violet. Here is the method: Patient six. Diagnosis: poorly differentiated pulmonary adenocarcinoma. MTS [expansion not given; possibly metastases] to the brain and skeleton bones. Cachexia. Pain syndrome. Relatives state that over the last two months the patient has been receiving 5.0 ml of heroin intravenously three times a day. Otherwise, they note resumption of pronounced excruciating pain. In CT, several tumor-like masses in the mediastinum and left lung, average size 3.9×3.6×3.2 cm. Grave condition, dyspnea, cyanosis, adynamia, and sensations of pain, getting stronger when coughing. Treatment was prescribed that included the use of medicinal preparations with antineoplastic action—an organic dye, a 1% gentian violet solution. The first course of treatment using the preparation—15 drops of a 1% solution in a glass of water three times a day by mouth, additionally a microclyster—10 drops of a 1% solution in 30 ml of water at lunch, and q.h.s. a 1% suppository with the preparation. […] On the third week of treatment with the preparation the patient's condition improved. […] The lung tumor size dropped to 2.1×2.2×2.2 cm. After six months of treatment the tumor size dropped to 0.3×0.4×1.0 cm. […] Blood tests against the background of treatment have normalized.

The test system of a further assay is osteoarthrosis pain. Description: Example 7: patient T., osteoarthrosis with joint deformation, permanent pain. Here is the method:
Patient four. Complaints of not being able to raise their right arm above the shoulder level. In CT, effects of osteoarthrosis with joint deformation were noticed. Taking analgesic preparations turned out to be ineffective. Pain became permanent. Gentian violet preparation was prescribed, 0.0004 mg/kg of weight once a day.

Assay [4] concerns metastasizing melanoma of the right forearm, metastases to the liver, pain. Description: Example 4: patient D., metastasizing melanoma, treated with malachite green oxalate. Here is the method:
Patient three. Diagnosis: metastasizing melanoma of the right forearm. Metastases to the liver and right eye. Three years ago melanoma resection was performed. A year and a half later gripes appeared in the right eye. Eye enucleation for metastasis was performed. In the examination of the internal organs, a 4×5×4 cm metastasis in the liver was detected. At the same time, relapse in the surgery area appeared. Complaints of severe pain in the liver and pain in the relapse area. Objectively: medium severity condition, skin integument pallor, a purple tumor-like mass on the right forearm with a 4×5×5 cm pronounced edema. […] Began treatment with the preparation according to the following regimen: 5 ml of a 0.000001% sterile solution of malachite green oxalate was injected under the tumor base. Later, a 2% ointment with the same preparation was applied to the skin surface. Two times a day, 500 mg of malachite green oxalate diluted in 500 ml of saline was administered intravenously. Also, 5 g of malachite green oxalate was diluted in water and administered by mouth, as well as in the form of microclysters. […] The course had continued for 3 months.

The test system of assay [5] is bladder cancer, metastases in pelvic bones, pain. Description: Example 3: patient L., bladder cancer with pelvic bone metastases, treated with malachite green oxalate. Here is the method:
Patient one. Diagnosis: bladder cancer. Metastases in pelvic bones. Three years ago bladderectomy was performed for cancer. Complaints of pain, bloody urine, frequent urination and pelvic bone pains. In CT, a 2×2×2 cm tumor-like mass in the projection of the mouth of the right ureter and a 1.5×1.1×0.9 cm in the projection of the mouth of the left ureter. In the wing of the left illium two tumor-like masses with irregular contours, 1.5 to 2.5 cm in diameter. Medium severity condition, skin integument pallor, blood in urine. […] Began treatment with the preparation—20 drops of a 1% solution of malachite green oxalate in half a glass of water by mouth and in the form of microclysters. […] The course had lasted for 4 months. […] Biphosphonates were prescribed for replacement therapy.

The next assay relates to migraine. The assay can be described thus: Example 8: patient O., migraine. Particulars: third day; 2 g in 100 ml of water on an empty stomach two times a day. Here is the method:
Patient five.
Complaints of periodic excruciating pain in the right temporal area. Diagnosis: migraine. Prescribed treatment: malachite green oxalate preparation, 2 g dissolved in 100 ml of water on an empty stomach two times a day.

Take `CN(C)c1ccc(C(=C2C=CC(=[N+](C)C)C=C2)c2ccc(N(C)C)cc2)cc1` [crystal violet]: the pain syndrome result in assay [1] (after 7 days of treatment) is listed as “disappeared”. The dyspnea result in assay [1] (after 7 days, 16 drops of 1% solution by mouth three times a day and microclysters) is on record as “abated”. In assay [1] (after the 12-month course), the pain result was “No pain” and the weight result was “restored”. Besides, the “right kidney tumor and lung metastases” value in assay [1] (during therapy, 1% suppositories and inhaling for 12 months with breaks) was “disappeared”. Moreover, the blood tests entry in assay [1] (over 3 weeks) is on record as “normalized”.

Turning to `CN(C)c1ccc(C(=C2C=CC(=[N+](C)C)C=C2)c2ccc(N(C)C)cc2)cc1` [gentian violet], the pain result in assay [2] (after 3 days, 3 mg per 50 kg of weight two times a day) is “abated significantly”; in assay [2] (later than 3 days (then)), “stopped completely”; in the assay on osteoarthrosis pain (after a week), “disappeared completely”; with osteoarthrosis pain (after three days, 0.0004 mg/kg of weight once a day) it was “abated”. The return of pain entry in assay [2] (hereinafter) is “has not returned”. Besides, in assay [3] (after six months of treatment), the brain metastases result is reported as “No brain metastases are observed”. Besides, in assay [3] (after six months of treatment), the dyspnea entry is “abated”. In assay [3] (after six months of treatment), the pain syndrome result is “practically absent”. In addition, in assay [3] (against the background of treatment), the blood tests result is given as “normalized”. Besides, the “pain syndrome after the sessions” value in assay [3] (first week, for several hours after sessions, 1% solution by mouth, microclyster, suppository) is “substantial improvement of the pain syndrome”. The “patient's condition” value in assay [3] (third week of treatment) is “improved”. In assay [3] (three months after start of treatment), the “MTS in the brain in CT” value is “no MTS in the brain were observed”.

malachite green oxalate: the blood tests result in assay [4] (4th week) and in assay [5] (fourth week) was “normalized” throughout. Besides, the return of pain result in assay [4] (complete course of 6 months) and in assay [5] (complete course of 6 months) was “did not return” each time. The weight entry in assay [4] (complete course of 6 months) and in assay [5] (complete course of 6 months) was “restored” in each case. Also, in assay [4] (during the 3-month course, baseline 4×5×4 cm), the “decrease of liver metastasis” value came out at 1.5 cm. Also, the “use of narcotics by the patient” value in assay [4] (fifth day after the start of treatment) was “declined taking narcotics”. The “pain in the area of metastases” value in assay [4] (sixth day, injection under tumor, 2% ointment, intravenous, by mouth, microclysters) was “became duller”; in assay [4] (tenth day) it was “disappeared completely”; in assay [5] (sixth day, 20 drops of 1% solution by mouth and microclysters) it was “got duller”; in assay [5] (tenth day) it was “disappeared completely”. Further, the “use of narcotic analgesics by the patient” value in assay [4] (stated after the tenth day, previously 3.0 ml of morphine four times a day) is “declined taking narcotic analgesics”; in assay [5] (previously 5.0 ml of morphine three times a day), “declined taking narcotic analgesics”. In addition, the “bladder tumor and pelvic metastases” value in assay [5] (complete course of 6 months) is “disappeared”. Moreover, the “decrease of pelvic bone metastases” value in assay [5] (over the 4-month course) came to 1.5 cm. The pain result in the assay on migraine was “abated and has not recurred”.
